Assay [1] deals with PZ-HPV-7 human prostatic epithelial cells. Put plainly: Cell proliferation, MTT assay. The format is cell-based. On the procedure: PZ-HPV-7, a human prostate epithelial cell line derived from normal peripheral zone tissue and transfected with human papillomavirus type 18, was obtained from the American Type Culture Collection (ATCC). Cells were grown in K-SFM medium supplemented with 100 U/mL penicillin, […], streptomycin 5 ng/ml, EGF human recombinant and 50 µg/mL BPE in 75-cm^2 flasks at 37° C. in a humidified atmosphere of […]. The culture medium was renewed every 2 days and cells were sub-cultured every 6 days. For the experiments, cells were seeded in 24-well plates at a density of 1×10^4 cells/well. After 24 hours and 48 hours, when cells were 80% confluent, KMUP-1 (1-100 μM) was added to the 24-well plates. Cell proliferation was measured using MTT assay (3-[4,5-dimethylthiazol-2-yl]-2,5-diphenyl-tetrazolium bromide, Sigma). The trypan blue […] exclusion assay was performed to determine the proportion of living and dead cells in 24 hours and 48 hours after treatment. After 24 hours and 48 hours of treatment with KMUP-1 (1-100 μM), attached cells were collected by trypsinization. Cells were counted in a hemocytometer using equal volume of cell suspension and trypan blue solution (0.2% in PBS).
In general terms: Formazan colour is commonly taken as a measure of viable cells.

Assay [2] deals with phenylephrine (10 μM) pre-contracted rat isolated prostate. Put plainly: Relaxation of phenylephrine pre-contracted rat isolated prostate strips (isometric tension). On the procedure:
The rat isolated prostate tissue was prepared as previously described with modifications^[10]. Briefly, Wistar rats (300-400 g) were killed with pentobarbital sodium (30 mg/kg) and the ventral part of their prostates were quickly excised. […] O2 and 5% CO2.
Isometric tension was recorded with a force displacement transducer (UGO BASILE, Model 7004, Italy). After the equilibration period, the strips were primed twice by adding 10 μM of the agonist, phenylephrine, to reach 80-100% of maximum contraction. […] The relaxation on rat prostate by KMUP-1 (0.01-100 μM) and tamsulosin (0.001 nM-100 μM) were also tested by their combination with sildenafil (0.1 μM), respectively. In isolated prostate strips, while stable constriction to phenylephrine was reached, sildenafil (0.1 μM) was pre-incubation for 30 minutes, before the cumulative addition of KMUP-1 (0.01-100 μM) or tamsulosin (0.001 nM-100 μM) to isolated prostate strips. In another experiment, to examine the possible mechanism of action of KMUP-1, rat prostates were pretreated with ODQ (1H-[1,2,4]oxadiazolo[4,3-a]quinoxalin-1-one, 10 μM, sGC inhibitor), RP-8pCPT-cGMPs (10 μM, PKG inhibitor), glibenclamide (10 μM, KATP channel blocker), 4-AP (4-aminopyridine, 100 μM, voltage-dependent K^+ channel blocker), apamin (1 μM, Ca^2+-dependent K^+ channel blocker) and charybdotoxin (ChTX) (0.1 μM, Ca^2+-dependent K^+ channel blocker) for 30 minutes before addition of KMUP-1 (100 μM).

Assay [3] relates to sGCa1. As to the kind of experiment: Western blot of sGCa1 expression in rat prostate. On the procedure: (§1) Prostate strips were incubated with KMUP-1 (10-100 μM), sildenafil (100 μM) and zaprinast (100 μM) in 10 mL Tyrode solution aerated with 95% O2 and 5% CO2 for 1 hour. To examine the possible mechanisms of KMUP-1 action, the rat prostate were pretreated with ODQ (10 μM), SQ22536 (10 μM) and RP-8pCPT-cGMPs (10 μM) for 30 minutes prior to the addition of KMUP-1 (100 μM).
In order to examine the expression of Rho kinase in prostate, the prostate strips were pre-incubated with phenylephrine (10 μM) for 30 minutes. After a pre-treatment of phenylephrine, KMUP-1 (10-100 μM) and Y-27632 (10 μM) were further incubated for 30 minutes. After the incubation time, the prostate were extracted with protein extraction reagent (Pierce Biotechnology, Inc., Rockford, Ill., USA.). The PZ-HPV-7 cells were incubated with and without KMUP-1 (0.1-10 μM) at 30 minutes, 8 and 24 hours. They were then washed rapidly with ice-cold PBS, incubated with protein extraction reagent, and scraped from the plates. The prostate tissues and cells were sonicated three times for 10 second each time and centrifuged at 13,000 rpm at 4° C. for 30 minutes. The protein concentrations of supernatants were determined, using bovine serum albumin as the standard. Tissue and cell extract protein were then boiled at a ratio of 4:1 with sample buffer (100 mM Tris, pH 6.8, 20% glycerol, 4% SDS, and 0.2% bromphenol blue). 40-60 μg protein was used in this experiment. Electrophoresis was performed using 10 or 12% SDS-polyacrylamide gel electrophoresis and then transferred to nitrocellulose membranes (Millipore Corporation, Billerica, Mass.). The membrane was blocked with Tris-buffered saline (20 mM Tris and 137 mM NaCl, pH 7.6) containing 0.1% Tween 20 (TTBS) and 5% non-fat milk at room temperature for 1 hour, washed with TTBS, and then incubated overnight at 4° C. in the appropriate primary antibody of PKG (Santa Cruz, 1:200), sGCa1 (Santa Cruz, 1:200), PKA (Abcam, 1:1000), ROCK2 (Upstate, 1:1000), and PDE5A (BD Biosciences, 1:1000), p21 (Upstate, 1:1000). The membranes were washed in TTBS before being incubated with horseradish peroxidase-conjugated antibody against mouse, goat, or rabbit IgG (Santa Cruz, 1:1000) for 1 hour. The membrane was then washed in TTBS and developed with the enhanced chemiluminescence (ECL) for the detection of the specific antigen. The intensity of the bands was measured by densitometry.
A general note: A western blot detects proteins with antibodies after separation by electrophoresis.

Assay [4] has as its system PDE5A. Put plainly: Western blot of PDE5A expression in rat prostate. To be noted: KMUP-1 10-100 μM. On the procedure: as §1
In order to examine the expression of Rho kinase in prostate, the prostate strips were pre-incubated with phenylephrine (10 μM) for 30 minutes. After a pre-treatment of phenylephrine, KMUP-1 (10-100 μM) and Y-27632 (10 μM) were further incubated for 30 minutes. After the incubation time, the prostate were extracted with protein extraction reagent (Pierce Biotechnology, Inc., Rockford, Ill., USA.). The PZ-HPV-7 cells were incubated with and without KMUP-1 (0.1-10 μM) at 30 minutes, 8 and 24 hours. They were then washed rapidly with ice-cold PBS, incubated with protein extraction reagent, and scraped from the plates. The prostate tissues and cells were sonicated three times for 10 second each time and centrifuged at 13,000 rpm at 4° C. for 30 minutes. The protein concentrations of supernatants were determined, using bovine serum albumin as the standard. […] The intensity of the bands was measured by densitometry.

Structures are written as SMILES. “And” between values parts separate entries of the source, which are not always exact repeats. Equal values may be shown once.

Take `Cn1c(=O)c2c(ncn2CCN2CCN(c3ccccc3Cl)CC2)n(C)c1=O` [KMUP-1, 7-[2-[4-(2-Chlorobenzene)piperazinyl]ethyl]-1,3-dimethyl xanthine]: the cell growth in assay [1] (1 μM, 24 hours) is reported as 82.00±3.03 % of control; in assay [1] (1 μM, 48 hours), 70.00±2.23 % of control; in assay [1] (10 μM, 24 hours) it was 80.03±1.52 % of control; in assay [1] (10 μM, 48 hours), 56.00±2.72 % of control; in assay [1] (100 μM, 24 hours), 79.00±1.35 % of control; in assay [1] (100 μM, 48 hours), 47.00±1.8 % of control. For the same molecule, the relaxation is reported as 110.00±5.09% in assay [2] (10 μM, 1 hour, phenylephrine 10 μM pre-contracted); 112.50±7.84% in assay [2] (KMUP-1 100 μM, pre-incubation with ODQ 10 μM); 128.00±4.41% in assay [2] (KMUP-1 100 μM, pre-incubation with RP-8pCPT-cGMPs 10 μM); 122.00±3.74% in assay [2] (KMUP-1 100 μM, with 4-AP 100 μM); 126.00±9.09% in assay [2] (KMUP-1 100 μM, with apamin 1 μM); 138.00±7.01% in assay [2] (KMUP-1 100 μM, with charybdotoxin 0.1 μM). In addition, in assay [2] (KMUP-1 100 μM, with glibenclamide 10 μM), the relaxation was 115.00±7.07%. Moreover, the relaxation activity in assay [2] (100 μM combined with sildenafil 0.1 μM) was found to be 190.00±10.14%. Moreover, the relaxation ability in assay [2] (100 μM, phenylephrine 10 μM pre-contracted) was 179.00±5.35% and 179.00±5.3%. The “expression of sGCa1” value is “significantly reduce” in assay [3] (KMUP-1 100 μM after pretreatment of ODQ 10 μM for 30 minutes) and “most potently induces” in assay [3] (KMUP-1 10-100 μM, sildenafil, zaprinast 100 μM, 1 hour). Further, in assay [4], the “expression of PDE5A” value is reported as “mildly inhibits”.

The values are drawn from patent US20090306093A1, “METHOD FOR TREATING PATIENT HAVING BENIGN PROSTATE HYPERPLASIA” (KAOHSIUNG MEDICAL UNIVERSITY, priority 2008, published 2009).
